Assay [1] has as its target T1, Furin (108-574-Tev-Flag-His) enzyme (Homo sapiens, UniProt P09958).
T1 construct: Furin (108-574-Tev-Flag-His) enzyme was expressed and purified from CHO cells; TEV cleavage site (C); FLAG (C); His (C); made in house; host or cells: CHO cells
Description: Furin enzyme assay. Format: biochemical. The procedure:
Reactions were performed in black 384-well polystyrene low volume plates (Greiner). Furin (108-574-Tev-Flag-His) enzyme was expressed and purified from CHO cells. Compounds of the invention were dissolved in DMSO (1.0 mM) and serially diluted 1 to 3 with DMSO through eleven dilutions to provide a final compound concentration range from 0.00017 to 10 μM. 0.05 μL of each concentration was transferred to the corresponding well of an assay plate, and then 5 μL of 40 pM furin enzyme in assay buffer (100 mM HEPES pH7.5, 1 mM CaCl2 and 0.005% Triton X-100) was added using a Multidrop Combi (Thermo) to the compound plates, and mixed by inversion. […] The plates were centrifuged at 500×g for 1 minute and incubated at room temperature for two hours. Enzyme inhibition is then quantified using an Envision instrument (PerkinElmer).
Data were analyzed using AbaseXE 7.3, utilizing a four-parameter curve fit equation. The following values were used to define limits and/or constraints for each of the four parameters: • Minimum—limit −10 to 10 • Maximum—90 to 110 • Slope—limit 0.5 to 2.0 • pXC50 confidence interval—10
Raw counts obtained from the respective plate reader (Perkin Elmer) were captured for data analysis. Curves were generated using the equation: Y=A+[(B−A)/(1+(10^C/x)^D)] • where: A=minimum response • B=maximum response • C=log 10*XC50 • D=slope factor • x=log 10 compound concentration [M]
The results were recorded as pXC50 values (−C in the above equation)

Assay [2] concerns the target T2, furin (endogenous protease) in U20S cells (Homo sapiens, UniProt P09958).
T2 construct: the endogenous protease cleaves GFP; endogenous in cells; host or cells: U2OS cells transduced with a BacMam reporter
Description: Furin cell-based assay (image-based, Golgi-targeted GFP with BMP10 furin/PCSK cleavage site).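 Note: Read-out is mean GFP fluorescence of Golgi puncta per cell by high-content imaging, retained when furin inhibited, over an eleven-point 0.00017–10 µM series, four-parameter fit.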 The note with it: 24-hour incubation, read-out: furin golgi cell pXC50 (converted).

Counter-ions that a name gives are not always drawn.

T2 sequence (P09958 108-794): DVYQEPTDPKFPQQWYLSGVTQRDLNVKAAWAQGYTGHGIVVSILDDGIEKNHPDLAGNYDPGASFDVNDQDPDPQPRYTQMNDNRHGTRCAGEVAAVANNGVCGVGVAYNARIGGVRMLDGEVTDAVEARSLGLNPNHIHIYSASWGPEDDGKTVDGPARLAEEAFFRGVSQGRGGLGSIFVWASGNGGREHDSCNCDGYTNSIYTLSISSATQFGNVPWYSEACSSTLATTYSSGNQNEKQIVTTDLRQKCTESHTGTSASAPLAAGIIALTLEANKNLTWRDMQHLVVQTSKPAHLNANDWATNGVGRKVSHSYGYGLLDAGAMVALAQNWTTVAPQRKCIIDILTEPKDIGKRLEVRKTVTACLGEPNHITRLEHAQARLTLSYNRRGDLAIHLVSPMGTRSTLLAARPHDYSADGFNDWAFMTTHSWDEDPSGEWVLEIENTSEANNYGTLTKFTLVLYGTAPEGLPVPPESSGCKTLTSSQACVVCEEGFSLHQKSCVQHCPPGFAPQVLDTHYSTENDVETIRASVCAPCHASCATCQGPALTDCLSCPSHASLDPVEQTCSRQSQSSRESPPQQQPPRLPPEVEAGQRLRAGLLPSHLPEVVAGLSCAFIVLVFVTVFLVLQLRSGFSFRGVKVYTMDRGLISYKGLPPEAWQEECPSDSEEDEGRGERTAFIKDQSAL
T1 sequence (P09958 108-574): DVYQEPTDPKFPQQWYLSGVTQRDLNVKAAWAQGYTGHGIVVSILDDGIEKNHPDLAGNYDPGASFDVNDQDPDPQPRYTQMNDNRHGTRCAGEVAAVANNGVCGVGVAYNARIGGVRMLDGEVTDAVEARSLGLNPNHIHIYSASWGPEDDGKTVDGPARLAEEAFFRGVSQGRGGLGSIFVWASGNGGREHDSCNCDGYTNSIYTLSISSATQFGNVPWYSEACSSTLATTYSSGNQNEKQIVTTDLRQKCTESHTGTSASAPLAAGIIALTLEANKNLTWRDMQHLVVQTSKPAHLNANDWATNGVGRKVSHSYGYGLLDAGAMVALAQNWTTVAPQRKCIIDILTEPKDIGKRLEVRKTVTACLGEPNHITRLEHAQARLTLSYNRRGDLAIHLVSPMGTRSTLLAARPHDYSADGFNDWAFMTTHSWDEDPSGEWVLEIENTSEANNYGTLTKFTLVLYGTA

`CCNC(=O)CC1CCN(Cc2cc(Oc3ccc(N4CCN(CCCS(C)(=O)=O)CC4)nc3)nc(-c3cc(Cl)cc(Cl)c3)c2)CC1` [Example 36, 2-(1-((2-(3,5-Dichlorophenyl)-6-((6-(4-(3-(methylsulfonyl)propyl)piperazin-1-yl)pyridin-3-yl)oxy)pyridin-4-yl)methyl)piperidin-4-yl)-N-ethylacetamide]: in assay [1], the “furin enzyme pIC50” value is given as 9. Also, in assay [2], the EC50 is 5.01 nM.
For `CNCc1cc(Oc2cnc(N3CCN(CCCS(C)(=O)=O)CC3)nc2)nc(-c2cc(Cl)cc(Cl)c2)c1` [Example 37, 1-(2-(3,5-Dichlorophenyl)-6-((2-(4-(3-(methylsulfonyl)propyl)piperazin-1-yl)pyrimidin-5-yl)oxy)pyridin-4-yl)-N-methylmethanamine], the “furin enzyme pIC50” value in assay [1] was 8.5. Further, in assay [2], the EC50 was 12.6 nM.
In the case of `NS(=O)(=O)CC1CCN(Cc2cc(Oc3ccc(N4CCN(CCC(=O)O)CC4)nc3)nc(-c3cc(Cl)cc(Cl)c3)c2)CC1` [Example 38, 3-(4-(5-((6-(3,5-Dichlorophenyl)-4-((4-(sulfamoylmethyl)piperidin-1-yl)methyl)pyridin-2-yl)oxy)pyridin-2-yl)piperazin-1-yl)propanoic acid], the “furin enzyme pIC50” value in assay [1] is given as 9. In addition, the EC50 in assay [2] was 126 nM.
Regarding `CS(=O)(=O)CC1CCN(Cc2cc(Oc3ccc(N4CCN(CCC(=O)O)CC4)nc3)nc(-c3cc(Cl)cc(Cl)c3)c2)CC1` [Example 39, 3-(4-(5-((6-(3,5-Dichlorophenyl)-4-((4-((methylsulfonyl)methyl)piperidin-1-yl)methyl)pyridin-2-yl)oxy)pyridin-2-yl)piperazin-1-yl)propanoic acid], the “furin enzyme pIC50” value in assay [1] was determined as 8.3. In addition, the EC50 in assay [2] was 79.4 nM.
For `CNC(=O)NCC1CCN(Cc2cc(Oc3ccc(N4CCN(CCO)CC4)nc3)nc(-c3cc(Cl)cc(Cl)c3)c2)CC1` [Example 40, 1-((1-((2-(3,5-Dichlorophenyl)-6-((6-(4-(2-hydroxyethyl)piperazin-1-yl)pyridin-3-yl)oxy)pyridin-4-yl)methyl)piperidin-4-yl)methyl)-3-methylurea], the “furin enzyme pIC50” value in assay [1] came out at 7.6. Moreover, the EC50 in assay [2] was 10 nM.
The like results for `CC(=O)NCC1CCN(Cc2cc(Oc3ccc(N)cc3)cc(-c3cc(Cl)cc(Cl)c3)c2)CC1` [Example 42, N-((1-((5-(4-Aminophenoxy)-3′,5′-dichloro-[1,1′-biphenyl]-3-yl)methyl)piperidin-4-yl)methyl)acetamide] were, in that order, 7.7 and 316 nM.
Regarding `CS(=O)(=O)NCC1CCN(Cc2cc(Oc3ccc(N4CCN(CCC(=O)O)CC4)nc3)nc(-c3cc(Cl)cc(Cl)c3)c2)CC1` [Example 44], in assay [1], the “furin enzyme pIC50” value amounted to 9.5. Moreover, the EC50 in assay [2] was 25.1 nM.
On the same counts, the results for `CC(=O)NCC1CCN(Cc2cc(Oc3cnc(N)c(F)c3)cc(-c3cc(Cl)cc(Cl)c3)c2)CC1` [Example 46, N-((1-((5-((6-Amino-5-fluoropyridin-3-yl)oxy)-3′,5′-dichloro-[1,1′-biphenyl]-3-yl)methyl)piperidin-4-yl)methyl)acetamide, 2 hydrochloride] are 7 and 501 nM.
As to `CNC(=O)NCC1CCN(Cc2cc(Oc3cnc(N4CCN(CCO)CC4)nc3)nc(-c3cc(Cl)cc(Cl)c3)c2)CC1` [Example 47, 1-((1-((2-(3,5-Dichlorophenyl)-6-((2-(4-(2-hydroxyethyl)piperazin-1-yl)pyrimidin-5-yl)oxy)pyridin-4-yl)methyl)piperidin-4-yl)methyl)-3-methylurea, 4 hydrochloride], the “furin enzyme pIC50” value in assay [1] is given as 8.9. Also, in assay [2], the EC50 was 3.98 nM.
On the same counts, the results for `CNC(=O)NCC1CCN(Cc2cc(Oc3cnc(N4CCN(CCCS(N)(=O)=O)CC4)nc3)nc(-c3cc(Cl)cc(Cl)c3)c2)CC1` [Example 48, 3-((4-(5-((6-(3,5-Dichlorophenyl)-4-((4-((3-methylureidolmethyl)piperidin-1-yl)methyl)pyridin-2-yl)oxy)pyrimidin-2-yl)piperazin-1-yl)propane-1-sulfonamide. 4 hydrochloride] are 9.4 and 2.51 nM.
Consider `COC(=O)NCC1CCN(Cc2cc(Oc3cnc(N4CCNCC4)nc3)nc(-c3cc(Cl)cc(Cl)c3)c2)CC1` [Example 49, Methyl((1-((2-(3,5-dichlorophenyl)-6-((2-(piperazin-1-yl)pyrimidin-5-yl)oxy)pyridin-4-yl)methyl)piperidin-4-yl)methyl)carbamate, 4 hydrochloride], for which the “furin enzyme pIC50” value in assay [1] was 9.1. Besides, the EC50 in assay [2] is 20 nM.
The like results for `CNCc1cc(Oc2ccc(N3CCN(CCC(=O)O)CC3)nc2)nc(-c2cc(Cl)cc(Cl)c2)c1` [Example 50, 3-(4-(5-((6-(3,5-Dichlorophenyl)-4-((methylamino)methyl)pyridin-2-yl)oxy)pyridin-2-yl)piperazin-1-yl)propanoic acid, 4 hydrochloride] were, in that order, 8.1 and 126 nM.
The like results for `COC(=O)NCC1(F)CCN(Cc2cc(Oc3cnc(N4CCN(CCC(=O)O)CC4)nc3)nc(-c3cc(Cl)cc(Cl)c3)c2)CC1` [Example 51, 3-((4-(5-((6-(3,5-Dichlorophenyl)-4-((4-fluoro-4-(((methoxycarbonyl)amino)methyl)piperidin-1-yl)methyl)pyridin-2-yl)oxy)pyrimidin-2-yl)piperazin-1-yl)propanoic acid, 4 hydrochloride] were, in that order, 8.2 and 158 nM.
On the same counts, the results for `CN1CCN(c2ncc(Oc3cc(CN4CCC(CCO)CC4)cc(-c4cc(Cl)cc(Cl)c4)n3)cn2)CC1` [Example 52, 2-(1-((2-(3,5-Dichlorophenyl)-6-((2-(4-methylpiperazin-1-yl)pyrimidin-5-yl)oxy)pyridin-4-yl)methyl)piperidin-4-yl)ethanol] are 9.8 and 1.26 nM.
As for `CN1CCN(c2ncc(Oc3cc(CN4CCC(OCC(=O)O)CC4)cc(-c4cc(Cl)cc(Cl)c4)n3)cn2)CC1` [Example 53, 2-((1-((2-(3,5-Dichlorophenyl)-6-((2-(4-methylpiperazin-1-yl)pyrimidin-5-yl)oxy)pyridin-4-yl)methyl)piperidin-4-yl)oxy)acetic acid, 4 hydrochloride], in assay [1], the “furin enzyme pIC50” value turned out to be 8.7. Besides, the EC50 in assay [2] is 15.8 nM.
On to `NC(=O)OCCN1CCN(Cc2cc(Oc3cnc(N4CCN(CCC(=O)O)CC4)nc3)nc(-c3cc(Cl)cc(Cl)c3)c2)CC1` [Example 54, 3-(4-(5-((4-((4-(2-(Carbamoyloxy)ethyl)piperazin-1-yl)methyl)-6-(3,5-dichlorophenyl)pyridin-2-yl)oxy)pyrimidin-2-yl)piperazin-1-yl)propanoic acid, 5 hydrochloride], for which the “furin enzyme pIC50” value in assay [1] amounted to 8.2. For the same compound, in assay [2], the EC50 was 158 nM.
On the same counts, the results for `NC(=O)OCCN1CCN(Cc2cc(Oc3ccc(N4CCN(CCC(=O)O)CC4)nc3)nc(-c3cc(Cl)cc(Cl)c3)c2)CC1` [Example 55, 3-(4-(5-((4-((4-(2-(carbamoyloxy)ethyl)piperazin-1-yl)methyl)-6-(3,5-dichlorophenyl)pyridin-2-yl)oxy)pyridin-2-yl)piperazin-1-yl)propanoic acid] are 8.2 and 251 nM.

The values are drawn from patent publication US11773078B2, “Furin inhibitors” (Glaxosmithkline Intellectual Property Development Limited, priority 2018, dated 2023).
